Results: patent publication EP2061765B1, “Serine-threonine protein kinase and PARP modulators” (Senhwa Biosciences, Inc., priority 2006, dated 2008)

How the values were obtained:
Test in all cases: Cell proliferation assay (Alamar Blue)
Format in all cases: cell-based
MDAMB231 = settings: Homo sapiens, MDA-MB-231, 96 h, MDAMB231 cells, four days
Method in brief: (§1)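 Cells plated at 4,000-5,000 per well, then exposed to compound for four days at 37°C, 5% CO2. Alamar Blue added for a further 4 h; fluorescence read at ex 544/em 590 nm. Medium-only wells served as blank, cells without compound as untreated control.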

MCF-7 = settings: Homo sapiens, MCF7, 96 h, MCF-7 cells, four days
Method in brief: as §1

A549 = settings: Homo sapiens, 96 h, A549 cells, four days
Method in brief: as §1

LNCaP = settings: Homo sapiens, 96 h, LNCaP cells, four days
Method in brief: as §1

K-562 = settings: Homo sapiens, K562, 96 h, K-562 cells, four days
HCT-116 = settings: Homo sapiens, 96 h, HCT-116 cells, four days
Hs578T = settings: Homo sapiens, Hs-578T, 96 h, Hs578T cells, four days
Method in brief: as §1

PC3 = settings: Homo sapiens, PC-3, 96 h, PC3 cells, four days
Method in brief: as §1

Jurkat = settings: Homo sapiens, 96 h, Jurkat cells, four days
Method in brief: as §1

MiaPaCa = settings: Homo sapiens, MIA PaCa-2, 96 h, MiaPaCa cells, four days
Method in brief: as §1

H1299 = settings: Homo sapiens, NCI-H1299, 96 h, H1299 cells, four days
Method in brief: as §1

A375 = settings: Homo sapiens, A-375, 96 h, A375 cells, four days
Method in brief: as §1

BxPC3 = settings: Homo sapiens, BXPC-3, 96 h, BxPC3 cells, four days
Method in brief: as §1

PanC1 = settings: Homo sapiens, PANC-1, 96 h, PanC1 cells, four days
Method in brief: as §1

Structure (SMILES)	IC50 (HCT-116)	IC50 (Hs578T)	IC50 (PC3)	IC50 (Jurkat)	IC50 (MiaPaCa)	IC50 (H1299)	IC50 (A375)	IC50 (BxPC3)	IC50 (PanC1)	further results
Clc1cccc(Nc2nc3cc(-c4nnn[nH]4)ccc3c3cnccc23)c1 [drawing 386]										IC50 (MDAMB231): > 50 µM; IC50 (MCF-7): > 50 µM; IC50 (A549): > 50 µM; IC50 (LNCaP): 37.4 µM; IC50 (K-562): 31.2 µM
N#Cc1cccc(Nc2nc3cc(C(=O)O)ccc3c3cnccc23)c1 [drawing 312]	> 10 µM	35.6 µM	26.4 µM	22 µM	> 10 µM					
C#Cc1cccc(Nc2nc3cc(C(=O)O)ccc3c3cncnc23)c1 [drawing 304]	5.86 µM	2.86 µM	3.13 µM	1.8 µM	0.67 µM	1.55 µM	4.12 µM			
O=C(O)c1ccc2c(c1)nc(Nc1cccc(F)c1)c1ncncc12 [drawing 302]	7.1 µM	3.43 µM	4.71 µM	1.89 µM	3.36 µM	7.24 µM	5.11 µM			
O=C(O)c1ccc2c(c1)nc(Nc1cccc(F)c1)c1ccncc12 [drawing 375]										IC50 (A549): 16.6 µM
O=C(O)c1ccc2c(c1)nc(Nc1cc(F)cc(F)c1)c1ccncc12 [drawing 311]	4.33 µM	9.09 µM	10.1 µM	2.41 µM	1.35 µM	8.91 µM	5.4 µM			
Fc1cc(Nc2nc3cc(-c4nnn[nH]4)ccc3c3cnccc23)ccc1Cl [drawing 382]										IC50 (MDAMB231): > 50 µM; IC50 (MCF-7): 5.94 µM; IC50 (A549): > 50 µM; IC50 (LNCaP): 48.2 µM; IC50 (K-562): > 50 µM
COC(=O)c1ccc2c(c1)nc(Nc1ccccc1)c1ccncc12	15 µM	4.78 µM	11.3 µM	6.83 µM		13.1 µM				
C#Cc1cccc(Nc2nc3cc(C(=O)O)ccc3c3cnccc23)c1 [drawing 309]		4.03 µM	16.8 µM	2.78 µM	3.85 µM	3.65 µM	7.36 µM			
O=C(O)c1ccc2c(c1)nc(Nc1ccc(Cl)cc1)c1ccncc12 [drawing 308]	6.72 µM	6.64 µM	8.63 µM	2.53 µM	2.7 µM	1.94 µM	4.8 µM			
Fc1cc(Nc2nc3cc(-c4nnn[nH]4)ccc3c3cnccc23)ccc1Cl [drawing 306]	> 10 µM		> 50 µM	18.8 µM	> 10 µM	> 50 µM				
O=C(O)c1ccc2c(c1)nc(Nc1ccc(F)c(Cl)c1)c1ccncc12 [drawing 291]	4.34 µM	3.31 µM	4.86 µM	2.68 µM	3.06 µM	3.08 µM	3.21 µM			
O=C(O)c1ccc2c(c1)nc(Nc1cccc(F)c1)c1ccncc12 [drawing 298]		5.89 µM	9.23 µM	3.19 µM	6.86 µM	8.32 µM				
CNc1ncc2c(n1)c(Nc1ccccc1)nc1cc(C(=O)O)ccc12 [drawing 307]	2.99 µM	1.84 µM	3.14 µM	0.73 µM	1.09 µM	2.42 µM	1.92 µM			
O=C(O)c1ccc2c(c1)nc(Nc1ccc(Cl)c(C(F)(F)F)c1)c1ccncc12 [drawing 476]								2.6 µM	17.9 µM	
O=C(O)c1ccc2c(c1)nc(Nc1ccccc1)c1nc(NCCO)ncc12 [drawing 464]								23.5 µM	> 50 µM	
O=C(O)CCNc1ncc2c(n1)c(Nc1cccc(Cl)c1)nc1cc(C(=O)O)ccc12 [drawing 498]								43.5 µM	> 50 µM	
C#Cc1cccc(Nc2nc3cc(C(=O)O)ccc3c3cnc(NC4CCNCC4)nc23)c1 [drawing 473]								25.3 µM	> 50 µM	
CN(C)c1ncc2c(n1)c(Nc1cccc(Cl)c1)nc1cc(C(=O)O)ccc12 [drawing 481]								42.7 µM	> 50 µM	
O=C(O)c1ccc2c(c1)nc(Nc1cccc(Cl)c1)c1ncncc12 [drawing 303]	7.19 µM	11.2 µM	9.14 µM	0.88 µM	2.09 µM	3.01 µM	5.45 µM			
NC(=O)c1ccc2c(c1)nc(Nc1cccc(C(F)(F)F)c1)c1nc(NC3CC3)ncc12 [drawing 507]								0.33 µM	> 50 µM	
CCNc1ncc2c(n1)c(Nc1cccc(Cl)c1)nc1cc(C(=O)O)ccc12 [drawing 485]								2.37 µM	1.61 µM	
COC(=O)c1ccc2c(c1)nc(Nc1cccc(OC)c1)c1ccncc12	15 µM	1.82 µM	11.3 µM	3.4 µM		7.16 µM				
